Laboratory results as given in PubChem BioAssay (NCI).
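Cultured in 96-well plates, cells were exposed to test compound for 48 hours across five concentrations. At the GI50, growth is halved. TGI is the concentration that stops growth completely.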

Legend:
Experiment in all cases: DTP human tumour cell line panel, 48 h
DU-145 prostate = system: DU-145 prostate
HL-60(TB) leukemia = system: HL-60(TB) leukemia
MDA-MB-231 breast = system: MDA-MB-231 breast
NCI-H226 lung = system: NCI-H226 lung
NCI-H23 lung = system: NCI-H23 lung
RPMI-8226 leukemia = system: RPMI-8226 leukemia
SF-295 CNS = system: SF-295 CNS
SN12C renal = system: SN12C renal
TK-10 renal = system: TK-10 renal
NCI-H460 lung = system: NCI-H460 lung

Structure (SMILES) | TGI (DU-145 prostate) [µM] | TGI (HL-60(TB) leukemia) [µM] | TGI (MDA-MB-231 breast) [µM] | TGI (NCI-H226 lung) [µM] | TGI (NCI-H23 lung) [µM] | TGI (RPMI-8226 leukemia) [µM] | TGI (SF-295 CNS) [µM] | TGI (SN12C renal) [µM] | TGI (TK-10 renal) [µM] | TGI (NCI-H460 lung) [µM] | GI50 (DU-145 prostate) [µM] | GI50 (HL-60(TB) leukemia) [µM] | GI50 (MDA-MB-231 breast) [µM] | GI50 (NCI-H226 lung) [µM] | GI50 (NCI-H23 lung) [µM] | GI50 (NCI-H460 lung) [µM] | GI50 (RPMI-8226 leukemia) [µM] | GI50 (SF-295 CNS) [µM] | GI50 (SN12C renal) [µM] | GI50 (TK-10 renal) [µM]
O=C(O)C1C(C(=O)Nc2ccc3c(c2)Cc2ccccc2-3)C2(Cl)C(Cl)=C(Cl)C1(Cl)C2(Cl)Cl (stereo unspecified) | > 100 | 55.8 | 41.6 | 88 | 31.3 | 32 | > 100 | > 100 | 68.1 |  |  |  |  |  |  |  |  |  |  | 
CC(=O)OC1CC(n2cc(F)c(=O)[nH]c2=O)OC1CO (stereo unspecified) | > 100 | > 100 | > 100 | > 100 | 77.1 | > 100 | > 89 | > 100 | > 100 | > 100 |  |  |  |  |  |  |  |  |  | 
COc1ccc(C(=O)c2ccc(OC)c(OC)c2OC)cc1 | 10.6 | > 100 | > 100 | > 100 | > 100 | > 100 | 5.07 | > 100 | > 100 | 11.6 | 2.14 | 0.464 | 3.63 | 34.7 | 3.32 | 1.99 | 2.59 | 0.956 | 8.33 | 2.85
CCn1c2c(n(CC)c1=S)-c1c(n(CC)c(=S)n1CC)SSSS2 | > 100 | 8.76 | 10 | 52.2 | 22.3 | 9.34 | > 80.3 | 24 | 28.4 | > 77.9 |  |  |  |  |  |  |  |  |  | 
C/C(=N\NC(=O)c1ccncc1)c1ccc2ccccc2c1O | 38.2 | 10.3 | > 91 | 12.1 | > 51 | > 64.4 | 20.7 | 40.9 | > 100 | 20.4 |  |  |  |  |  |  |  |  |  | 
CN1CCCNc2c(c(=O)c2=O)NCCCN(C)CCCNc2c(c(=O)c2=O)NCCCN(C)CCCNc2c(c(=O)c2=O)NCCCN(C)CCCNc2c(c(=O)c2=O)NCCCN(C)CCCNc2c(c(=O)c2=O)NCCCN(C)CCCNc2c(c(=O)c2=O)NCCCN(C)CCCNc2c(c(=O)c2=O)NCCC1 | 5.9 | 32.4 | 19.1 | 21.8 |  | 31.2 | 12.9 | 14.2 | 8.24 | > 50 | 1.68 | 5.82 | 4.42 | 8.43 |  | 3.9 | 3.51 | 5.52 | 1.34 | 1.71
CCCCCC(O)C1C(=O)OC(C)C(O)/C=C/C=C/C=C/C=C\C=C(\C)C(O)CC(O)CC(O)CC(O)CC(O)CC(O)CC1O (stereo unspecified) | > 100 | > 100 | > 100 | > 100 | > 100 | > 100 | > 100 | > 100 | > 100 | > 100 | > 100 | > 100 | > 100 | > 100 | > 100 | > 100 | > 100 | > 100 | > 100 | > 100
CC(C)(C)[Si](C)(C)OCC1OC(n2cnc3c(NC(=O)c4ccccc4)ncnc32)CC1O (stereo unspecified) | > 100 | 49.2 | 55.7 | 66.5 | > 100 | 47 | 44.2 | > 100 | > 100 | > 100 |  |  |  |  |  |  |  |  |  | 
CN(C)c1ccc(C(=C2C=CC(=[N+](C)C)C=C2)c2ccc(N(C)C)cc2)cc1 (tested in a mixture with another compound) | 1.28 | 0.677 | 1.03 |  |  |  | 0.396 |  | 0.321 |  | 0.0543 | 0.125 | 0.205 |  |  |  | 0.04 | 0.0483 |  | 0.0394
CC(=O)Nc1ccc(Sc2ccc([N+](=O)[O-])o2)cc1 | 5.98 | 3.79 | 4.95 | 8.7 | 10.2 | 8.65 | 23.5 | 10.7 | 5.99 | 8.93 | 2.26 | 1.29 | 2.18 | 2.88 | 2.99 | 2.83 | 2.13 | 10.4 | 2.96 | 2.13
CSc1cnn(CCC#N)c(=O)n1 | > 100 | > 100 | > 100 | > 100 | > 100 | > 100 | > 100 | > 100 | > 100 |  |  |  |  |  |  |  |  |  |  | 
NS(=O)(=O)c1cc2c(cc1Cl)NC(Cc1ccccc1)NS2(=O)=O (stereo unspecified) | > 100 |  | > 100 | > 100 | > 100 | > 100 | > 100 | > 100 | > 100 | > 100 |  |  |  |  |  |  |  |  |  | 
O=C1C(Br)=CC2(C=C1Br)CCN=c1c2c(O)c2nc3ccccc3c3ccnc1c23 | 24.8 | 5.59 | 12.1 |  | 8.41 | 1.57 | 19.3 | 5.92 | 10.3 | 10.6 | 1.95 | 2.07 | 3.59 |  | 1.91 | 2.48 | 0.591 | 5.97 | 1.54 | 3.47
O=C1OCC(c2cccs2)=C1Cl | > 100 | > 100 | 98.2 | 95.5 | > 100 | > 100 | > 100 | > 100 | > 100 | > 100 | 26.7 | > 100 | 24.7 | 28.2 | 60.6 | 56.8 | 32.2 | 80.9 | 26.7 | 54.2
O=P(O)(O)c1ccccc1 (tested in a mixture with another compound) | > 100 | > 100 | > 100 | > 100 | > 100 | > 100 | > 100 | > 100 | > 100 | > 100 |  |  |  |  |  |  |  |  |  | 
CCOc1ccc([C@@H]2[C@@H](Oc3ccccc3)C(=O)N2c2cc(OC)c(OC)c(OC)c2)cc1 | > 100 | 0.0691 | > 100 | > 100 | > 100 | > 100 | > 100 | > 100 | > 100 | > 100 | 0.218 | 0.0263 | 0.177 | 1.13 | 0.467 | 0.285 | 0.0486 | 0.0534 | 0.263 | 16

Structure (SMILES) | TGI (DU-145 prostate) [µM] | TGI (HL-60(TB) leukemia) [µM] | TGI (MDA-MB-231 breast) [µM] | TGI (NCI-H226 lung) [µM] | TGI (NCI-H23 lung) [µM] | TGI (RPMI-8226 leukemia) [µM] | TGI (SF-295 CNS) [µM] | TGI (SN12C renal) [µM] | TGI (TK-10 renal) [µM] | TGI (NCI-H460 lung) [µM] | GI50 (DU-145 prostate) [µM] | GI50 (HL-60(TB) leukemia) [µM] | GI50 (MDA-MB-231 breast) [µM] | GI50 (NCI-H226 lung) [µM] | GI50 (NCI-H23 lung) [µM] | GI50 (NCI-H460 lung) [µM] | GI50 (RPMI-8226 leukemia) [µM] | GI50 (SF-295 CNS) [µM] | GI50 (SN12C renal) [µM] | GI50 (TK-10 renal) [µM]
CC(C)(C)c1nc2c(o1)C(=O)c1ccccc1C2=O | 2.57 | 1.78 | 1.97 | 6.36 | 1.78 | 16.8 | 4.25 | 2.29 | 11.7 | 8.19 |  |  |  |  |  |  |  |  |  | 
COc1ccc(/C(Cl)=C(\C=O)c2ccc([N+](=O)[O-])cc2)cc1OC | > 100 | 11.6 | 83.9 | > 54.8 | 15.8 | > 25.8 | 44.2 | 22.1 | > 47.3 | 34 |  |  |  |  |  |  |  |  |  | 
CC(C)[C@@]12C[C@@H](OC(=O)[C@H]3CO3)[C@@](C)(O1)[C@@H]1CC[C@@H](C)[C@H]1[C@@H]2OC(=O)/C=C/c1ccccc1 | > 100 | 44.5 | 38.6 | 32.2 | > 100 | 68.2 | 35.5 | 41.2 | > 100 | 42.5 | 31.5 | 13.4 | 12.9 | 13.8 | 19.7 | 17.2 | 13.5 | 15.3 | 11.9 | 33.9
COc1cccc(C2C(C#N)=C(N)Oc3cc(N)ccc32)c1 (stereo unspecified) | 34 | 0.745 | 59.6 | > 100 | > 100 | > 69 | > 100 | > 100 | > 100 | > 87 | 0.71 | 0.35 | 1.29 | 5.52 | 0.571 | 0.368 | 0.412 | 0.376 | 0.689 | 2.83
COc1ccc(Nn2c(SCC(=O)Nc3nc(-c4ccc(Cl)cc4)cs3)nc(C)c2C)cc1 | > 100 | 59.1 | > 100 | > 100 | > 100 | > 100 | > 100 | 7.52 | 80.9 | 10.6 | 4.06 | 2.24 | 8.37 | 3.26 | 1.53 | 2.69 | 5.8 | 2.18 | 2.3 | 14.8
CCCCCCCC/C=C/CCCCCCCC1=NCC[N+]1(CCO)CCO | 16.2 | 4.68 | 8.81 | 19.8 | 16 | 10.8 | 4.07 | 12.6 | 4.39 | 3.39 | 4.41 | 1.75 | 2.47 | 4.16 | 3.05 | 1.69 | 2.71 | 1.75 | 3.2 | 1.94
CCNCC(=O)O[C@]1(CC)C(=O)OCc2c1cc1n(c2=O)Cc2cc3ccccc3nc2-1 | 1 | 0.849 | 98 | 1.29 | 0.879 | 4.07 | 4.66 | 11.2 | 99 |  |  |  |  |  |  |  |  |  |  | 
COc1cc(NCCCCN=C(N)NC(N)=NC(C)C)c2ncccc2c1 | > 59.9 | 10.9 | 17.8 | > 100 | 10.1 | 11 | > 91.1 | 28.5 | 43.3 | 20 | 21 | 3.47 | 1.94 | 27 | 0.984 | 5.97 | 1.51 | 23 | 5.21 | 10.8
CC(=O)c1c(C(F)(F)F)n([O-])c2ccc(Cl)cc2[n+]1=O | 0.576 | 4.65 | 3.27 | 3.43 | 6.64 | 0.171 | 5.92 | 2.52 | 2.66 | 0.286 | 0.158 | 0.681 | 1.3 | 1.4 | 1.72 | 0.0191 | < 0.0422 | 2.23 | 0.99 | 0.838
O=[N+]([O-])c1ccc(-c2nc(-c3ccccc3)c(-c3ccccc3)n2-c2ccccc2)cc1 | 12.2 | 5.83 | 7.04 | > 24.5 | 11.3 | 5.43 | 8.25 | 12.4 | 16.9 | 7.06 | 2.72 | 2.41 | 2.36 | 4.57 | 2.62 | 2.43 | 1.53 | 2.68 | 2.69 | 4.01
C1CCN(CCC2CCCCN2)CC1 (stereo unspecified) | > 100 | > 100 | > 100 | > 100 | > 100 | > 100 | > 100 | > 100 | > 100 | > 100 |  |  |  |  |  |  |  |  |  | 
CCN(CC)CCCNc1cccc2c(SCc3ccccc3)ccnc12 | 3.49 |  | 2.48 | 15.6 | 5.09 | 3.37 | 3.48 | 12.6 | 2.98 | 3.45 | 1.86 |  | 1.01 | 3.45 | 1.9 | 1.7 | 1.24 | 1.8 | 1.81 | 1.56
OCCCN=NNc1ccc(-c2nc3ccccc3[nH]2)cc1 | > 100 | 96.2 | 12.7 | 58.9 |  | > 100 | 7.58 | 46.6 | 82.5 | > 100 | 4.12 | 25.2 | 3.31 | 26.2 |  | 4.65 | 34.2 | 2.87 | 14.3 | 31.9
NC(=O)C1=NNc2ccccc2C(=O)N1c1ccccc1 | > 100 |  | > 100 | > 100 |  | > 100 | > 100 | > 100 | > 100 | > 100 |  |  |  |  |  |  |  |  |  | 
CC(C)C1OC(=O)C=C1Sc1ccccc1 (stereo unspecified) | > 100 | > 100 | > 100 | > 100 |  | > 100 | > 100 | > 100 | > 100 | > 100 |  |  |  |  |  |  |  |  |  | 
